The test concerns the target T1, human GnRH receptor (Homo sapiens, UniProt P30968).
T1 construct: expressed in transfected cells; host or cells: HEK 293 (hGnRH-R/293, from Dr. Stuart Sealfon)
T1 sequence (P30968 1-328): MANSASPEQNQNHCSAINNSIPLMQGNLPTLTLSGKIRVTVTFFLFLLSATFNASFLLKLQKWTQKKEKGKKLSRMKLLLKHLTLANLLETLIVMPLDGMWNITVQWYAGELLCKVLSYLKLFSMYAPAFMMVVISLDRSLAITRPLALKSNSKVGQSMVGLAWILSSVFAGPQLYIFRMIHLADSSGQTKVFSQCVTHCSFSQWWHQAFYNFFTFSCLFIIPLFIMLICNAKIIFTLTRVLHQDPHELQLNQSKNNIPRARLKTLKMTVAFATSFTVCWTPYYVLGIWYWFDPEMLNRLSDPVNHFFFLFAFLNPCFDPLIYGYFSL
Put plainly: Radioligand binding, 125I-GnRH-A displacement, membranes of HEK 293 cells with human GnRH receptor. The procedure, abridged:
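After filtration and PBS washes, bound radioactivity was counted by scintillation and IC50 derived. Identical conditions applied for non-human receptors.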

[1] abbreviates: 1 uM, read-out: % Inhib. @ 1 uM hGnRH.
Where [2] appears, read: 1 h, repeat of % Inhib. at 1 uM, read-out: Repeats @ 1 uM hGnRH.

Molecules are shown by their SMILES. Where two headings read alike, the source gives them in different places.

Take `COc1cc(CCNC(=O)c2ccc(Cc3cc4c(cc3C)C(C)(C)CCC4(C)C)o2)cc(OC)c1O` [drawing 1061]: the inhibition at 1 µM by setting is: under setting [1], 44%; under setting [2], 49%.
On the same counts, the results for `Cc1cc2c(cc1Cc1ccc(C(=O)NCC3CCN(C(=N)N)CC3)o1)C(C)(C)CCC2(C)C` [drawing 1063] are 26% and 87%.
The corresponding values for `Cc1cc2c(cc1Cc1ccc(C(=O)NCC3CCN(c4ccnc(Cl)n4)CC3)o1)C(C)(C)CCC2(C)C` [drawing 1064] are 79% and 91%.
On the same counts, the results for `Cc1cc2c(cc1Cc1ccc(C(=O)NCc3cccnc3)o1)C(C)(C)CCC2(C)C` [drawing 1067] are 69% and 74%.
Take `Cc1cc2c(cc1Cc1ccc(C(=O)NCCOCCO)o1)C(C)(C)CCC2(C)C` [drawing 1068]: the inhibition at 1 µM reads like this: under setting [1], 67%; under setting [2], 69%.
On the same counts, the results for `Cc1cc2c(cc1Cc1ccc(C(=O)NCc3ccccc3)o1)C(C)(C)CCC2(C)C` [drawing 1070] are 82% and 85%.
As for `Cc1cc2c(cc1Cc1ccc(C(=O)NC(c3ccccc3)c3ccccc3)o1)C(C)(C)CCC2(C)C` [drawing 1071], the “% Inhib. @ 1 uM hGnRH” value (1 uM) is −6%. Also, the “Repeats @ 1 uM hGnRH” value (repeat of % Inhib. at 1 uM) is on record as 2.
On the same counts, the results for `Cc1cc2c(cc1Cc1ccc(C(=O)NC(c3ccccc3)C(O)c3ccccc3)o1)C(C)(C)CCC2(C)C` (centres unmarked) [drawing 1072] are 56% and 57.
The corresponding values for `Cc1cc2c(cc1Cc1ccc(C(=O)NC(c3ccccc3)C(O)c3ccccc3)o1)C(C)(C)CCC2(C)C` (centres unmarked) [drawing 1073] are −11% and −8.
The corresponding values for `Cc1cc2c(cc1Cc1ccc(C(=O)NC(c3ccccc3)c3ccccc3)o1)C(C)(C)CCC2(C)C` [drawing 1077] are −7% and −7.
As for `COc1ccccc1CNC(=O)c1ccc(Cc2cc3c(cc2C)C(C)(C)CCC3(C)C)o1` [drawing 1078], the inhibition at 1 µM is 86% under setting [1] and 88% under setting [2].
The corresponding values for `Cc1cc2c(cc1Cc1ccc(C(=O)NCCc3ccccc3)o1)C(C)(C)CCC2(C)C` [drawing 1079] are 59% and 60%.
For the compound `Cc1cc2c(cc1Cc1ccc(C(=O)NCCNc3ccccc3)o1)C(C)(C)CCC2(C)C` [drawing 1080], the inhibition at 1 µM is, setting by setting: under setting [1], 70%; under setting [2], 72%.
On the same counts, the results for `Cc1cc2c(cc1Cc1ccc(C(=O)NCc3ccco3)o1)C(C)(C)CCC2(C)C` [drawing 1089] are 79% and 82%.
The corresponding values for `Cc1cc2c(cc1Cc1ccc(C(=O)NCc3ccccc3F)o1)C(C)(C)CCC2(C)C` [drawing 1090] are 81% and 89%.
On the same counts, the results for `Cc1cc2c(cc1Cc1ccc(C(=O)NCc3ccc(Cl)cc3)o1)C(C)(C)CCC2(C)C` [drawing 1091] are 68% and 68%.
On to `Cc1cc2c(cc1Cc1ccc(C(=O)N3CCN(c4ccccc4)CC3)o1)C(C)(C)CCC2(C)C` [drawing 1092], for which the “% Inhib. @ 1 uM hGnRH” value (1 uM) is listed as −1%. Also, the inhibition at 1 µM under setting [2] came to 6%.
As to `COc1cccc(CNC(=O)c2ccc(Cc3cc4c(cc3C)C(C)(C)CCC4(C)C)o2)c1OC` [drawing 1093], the inhibition at 1 µM was 76% under setting [1] and 83% under setting [2].
On the same counts, the results for `COc1cc(OC)c(CNC(=O)c2ccc(Cc3cc4c(cc3C)C(C)(C)CCC4(C)C)o2)c(OC)c1` [drawing 1094] are -10% and 13%.
On the same counts, the results for `COc1ccc(CNC(=O)c2ccc(Cc3cc4c(cc3C)C(C)(C)CCC4(C)C)o2)cc1OC` [drawing 1095] are 69% and 75%.
On the same counts, the results for `CCOc1ccccc1CNC(=O)c1ccc(Cc2cc3c(cc2C)C(C)(C)CCC3(C)C)o1` [drawing 1096] are 48% and 55%.
As for `Cc1ccccc1CNC(=O)c1ccc(Cc2cc3c(cc2C)C(C)(C)CCC3(C)C)o1` [drawing 1097], the inhibition at 1 µM by setting is: under setting [1], 84%; under setting [2], 86%.
The corresponding values for `COc1ccc(CNC(=O)c2ccc(Cc3cc4c(cc3C)C(C)(C)CCC4(C)C)o2)cc1` [drawing 1098] are 89% and 92%.
Consider `Cc1cc2c(cc1Cc1ccc(C(=O)NCc3cccs3)o1)C(C)(C)CCC2(C)C` [drawing 1099], for which the inhibition at 1 µM was found to be 82% under setting [1] and 85% under setting [2].
For `Cc1cc2c(cc1Cc1ccc(C(=O)NCc3cccc(Cl)c3Cl)o1)C(C)(C)CCC2(C)C` [drawing 1102], the inhibition at 1 µM is, setting by setting: under setting [1], 62%; under setting [2], 69%.
On the same counts, the results for `Cc1cc2c(cc1Cc1ccc(C(=O)NCc3ccccc3Cl)o1)C(C)(C)CCC2(C)C` [drawing 1103] are 77% and 84%.
The corresponding values for `Cc1cc2c(cc1Cc1ccc(C(=O)NCCc3ccccc3Cl)o1)C(C)(C)CCC2(C)C` [drawing 1104] are 55% and 63%.
The corresponding values for `Cc1cc2c(cc1Cc1ccc(C(=O)N(CCCO)Cc3ccccn3)o1)C(C)(C)CCC2(C)C` [drawing 1107] are -4% and 0%.
Take `COc1ccccc1CCNC(=O)c1ccc(Cc2cc3c(cc2C)C(C)(C)CCC3(C)C)o1` [drawing 1114]: the inhibition at 1 µM worked out at 61% under setting [1] and 70% under setting [2].
Regarding `Cc1cc2c(cc1Cc1ccc(C(=O)NC(CO)Cc3ccccc3)o1)C(C)(C)CCC2(C)C` (centres unmarked) [drawing 1117], the “% Inhib. @ 1 uM hGnRH” value (1 uM) is reported as 72%. Moreover, the “Repeats @ 1 uM hGnRH” value (repeat of % Inhib. at 1 uM) came out at 72.
Take `Cc1cc2c(cc1Cc1ccc(C(=O)NCc3cccc4ccccc34)o1)C(C)(C)CCC2(C)C` [drawing 1120]: the inhibition at 1 µM came to 61% under setting [1] and 71% under setting [2].
Turning to `Cc1cc2c(cc1Cc1ccc(C(=O)N3CCN(c4ccccc4)CC3)o1)C(C)(C)CCC2(C)C` [drawing 1121], the “% Inhib. @ 1 uM hGnRH” value (1 uM) is given as −6%. In addition, where the note is “repeat of % Inhib. at 1 uM”, the “Repeats @ 1 uM hGnRH” value came out at 6.
For the compound `Cc1cc2c(cc1Cc1ccc(C(=O)N3CCN(c4ncccn4)CC3)o1)C(C)(C)CCC2(C)C` [drawing 1124], the inhibition at 1 µM was -2% under setting [1] and 3% under setting [2].
The corresponding values for `Cc1cc2c(cc1Cc1ccc(C(=O)NC3CCCc4ccccc43)o1)C(C)(C)CCC2(C)C` (centres unmarked) [drawing 1127] are 14% and 27%.
On to `Cc1cc2c(cc1Cc1ccc(C(=O)NC3CCc4ccccc43)o1)C(C)(C)CCC2(C)C` (centres unmarked) [drawing 1129], for which the inhibition at 1 µM runs as follows: under setting [1], 38%; under setting [2], 45%.
On the same counts, the results for `Cc1cc2c(cc1Cc1ccc(C(=O)NC(C)CCc3ccccc3)o1)C(C)(C)CCC2(C)C` (centres unmarked) [drawing 1130] are 52% and 52%.
On the same counts, the results for `Cc1cc2c(cc1Cc1ccc(C(=O)NCCCN3CCCC3=O)o1)C(C)(C)CCC2(C)C` [drawing 1131] are 68% and 71%.
